Experimental data as given in the supplement of paper PMC13380429.

What was measured:
[1] = tested on: HepG2; test: drug sensitivity score (DSS) for viability; higher = more toxic; extreme values may be limits of the assay; conditions: 72 h
[2] = tested on: Vero E6; test: as above; conditions: 72 h
[3] = tested on: Calu-3; test: as above; conditions: 72 h
[4] = tested on: U2OS; test: as above; conditions: 72 h
[5] = tested on: Caco-2; test: as above; conditions: 72 h
[6] = tested on: HepG2; test: cell viability relative to DMSO; higher = less toxic; conditions: 72 h
[7] = tested on: Vero E6; test: as above; conditions: 72 h
[8] = tested on: Calu-3; test: as above; conditions: 72 h
[9] = tested on: U2OS; test: as above; conditions: 72 h
[10] = tested on: Caco-2; test: as above; conditions: 72 h
[11] = tested on: HepG2; test: relative viability EC50 (midpoint between 100% and the lowest measured viability); higher = less toxic; conditions: 72 h
[12] = tested on: Vero E6; test: as above; conditions: 72 h
[13] = tested on: Calu-3; test: as above; conditions: 72 h
[14] = tested on: U2OS; test: as above; conditions: 72 h
[15] = tested on: Caco-2; test: as above; conditions: 72 h
[16] = tested on: A549-ACE2 infected with SARS-CoV-2; test: SARS-CoV-2 infection rate relative to DMSO; higher = more infection; conditions: 24 h
[17] = tested on: A549-ACE2 infected with SARS-CoV-2; test: morphology score (similarity to uninfected cells); higher = more like uninfected cells; conditions: 24 h
[18] = tested on: A549-ACE2 infected with SARS-CoV-2; test: cell count relative to DMSO; higher = less toxic; conditions: 24 h
[19] = tested on: A549-ACE2; test: drug-induced phospholipidosis relative to tamoxifen; higher = more phospholipidosis

NCCCC[C@H](NC(=O)[C@@H]1CCCN1C(=O)[C@@H]1CSSC[C@H](N)C(=O)N[C@@H](Cc2ccc(O)cc2)C(=O)N[C@@H](Cc2ccccc2)C(=O)N[C@@H](CCC(N)=O)C(=O)N[C@@H](CC(N)=O)C(=O)N1)C(=O)NCC(N)=O [lypressin]
Conditions | drug sensitivity score | relative viability EC50 [µM]
[1] | 0 | –
[2] | 0 | –
[3] | 0 | –
[4] | 0 | –
[5] | 0 | –
[11] | – | > 10
[12] | – | > 10
[13] | – | > 10
[14] | – | > 10
[15] | – | > 10

cell viability [%]
Conditions | [6] | [7] | [8] | [9] | [10]
1 nM | 105 | 97.4 | 95.6 | 99.7 | 98.6
10 nM | 97.9 | 101 | 98.1 | 105 | 99.6
100 nM | 97.8 | 95.4 | 103 | 97.5 | 97.8
1000 nM | 100 | 99.1 | 93.4 | 98.8 | 102
10000 nM | 100 | 100 | 92.2 | 101 | 101

OC(CN1CCN(c2cccc(Cl)c2)CC1)C(c1ccccc1)c1ccccc1 (stereo not given)
Conditions | drug sensitivity score | relative viability EC50 [µM]
[1] | 0 | –
[2] | 0 | –
[3] | 0 | –
[4] | 0 | –
[5] | 0 | –
[11] | – | > 10
[12] | – | > 10
[13] | – | > 10
[14] | – | > 10
[15] | – | > 10

cell viability [%]
Conditions | [6] | [7] | [8] | [9] | [10]
1 nM | 103 | 95.5 | 102 | 95.2 | 93.3
10 nM | 102 | 96.9 | 110 | 97.9 | 101
100 nM | 92.4 | 88.9 | 98.6 | 98.2 | 101
1000 nM | 108 | 99.7 | 99.9 | 95.8 | 94.4
10000 nM | 102 | 104 | 104 | 92.8 | 105

C[C@H]1[C@H](NC(=O)/C(=N\OC(C)(C)C(=O)O)c2csc(N)n2)C(=O)N1S(=O)(=O)O [aztreonam]
Conditions | drug sensitivity score | relative viability EC50 [µM]
[1] | 0 | –
[2] | 0 | –
[3] | 0 | –
[4] | 0 | –
[5] | 0 | –
[11] | – | > 10
[12] | – | > 10
[13] | – | > 10
[14] | – | > 10
[15] | – | > 10

Conditions | SARS-CoV-2 infection rate, [16] [%] | cell count, [18] [%] | cell viability, [6] [%] | cell viability, [7] [%] | cell viability, [8] [%] | cell viability, [9] [%] | cell viability, [10] [%] | morphology score, [17]
1 nM | – | – | 93 | 93 | 103 | 99.3 | 96.9 | –
10 nM | – | – | 108 | 95.2 | 99.8 | 93.9 | 91.7 | –
100 nM | – | – | 96.3 | 93.3 | 94.6 | 98.4 | 94.5 | –
0.3 µM | 105 | 102 | – | – | – | – | – | 0.12
1000 nM | – | – | 101 | 96.1 | 95.6 | 97.6 | 96.2 | –
3 µM | 109 | 97 | – | – | – | – | – | -0.22
10 µM | 98 | 99 | – | – | – | – | – | 0.07
10000 nM | – | – | 104 | 102 | 103 | 92.5 | 104 | –
30 µM | 93 | 107 | – | – | – | – | – | 0.28

drug-induced phospholipidosis [%], [19]
Conditions | 0.3 µM | 0.833333 µM | 3.33333 µM | 6.66667 µM | 10 µM | 30 µM
24 h | 0.05 | -0.48 | -0.4 | 1.8 | 0.46 | 0.6
48 h | 4.27 | 0.47 | -0.36 | -0.48 | 2.78 | 5.88
72 h | 2.06 | -3.37 | -0.186 | -0.381 | 3.05 | 4.25
